Experimental data reported in US9403800B2, “Compounds for inhibition of cancer cell proliferation” (ChemRegen, Inc., priority 2012, dated 2016).

Key:
[1] = tested on: Endogenous Target Genes for Wnt & Apoptotic Pathways in HCT-116; experiment: qPCR of Wnt and pro-apoptotic target genes, HCT-116; type: cell-based; set-up: MYC expression, % change relative to DMSO control / CCDN1 expression, % change relative to DMSO control / BAX expression, % change relative to DMSO control / BBC3 expression, % change relative to DMSO control / FOS expression, % change relative to DMSO control: concentration or dose not given beside the values; settings: HCT-116, 24 hrs, qPCR normalized to 36B4
Method: (§1) Given the effects of Compounds 1, 4, and 15 on biological functions (e.g., proliferation, viability, and apoptosis) in several cancer cell lines, we tested the effects of compounds 1, 4, and 15 on regulation of endogenous Wnt and pro-apoptotic gene expression. MDA-MB-231, MCF-7, PC-3, and HCT-116 cancerncells were treated with the indicated compounds for 24 hrs. over a dose range from 1.6 to 5000 nM. Gene expression was measured using qPCR, normalized to the housekeeping gene, 36B4, and calculated % change relative to DMSO control. NC, no change.

HCT-116 [2] = experiment: stimulation of apoptosis, Caspase 3/7 cleavage (Caspase-Glo Kit), HCT-116; type: cell-based; settings: Homo sapiens, HCT-116, 24 hrs
Method: Given Compounds 1, 4, and 15 inhibited cancer cell proliferation, we tested whether compounds 1, 4, and 15 stimulated cancer cell apoptosis. The MDA-MB-231, MCF-7, PC-3, and HCT-116 cells were treated with the indicated compounds for 24 hrs. over a dose range from 1.6 to 5000 nM. Apoptosis was then measured by monitoring Caspase 3/7 cleavage (Caspase-Glo Kit).

[3] = cytotoxicity (Vibrant Cytotox assay), LNCap; type: cell-based; settings: human, LNCap cells
PC-3 [4] = experiment: inhibition of proliferation (PicoGreen DNA assay), PC-3; type: cell-based; settings: Homo sapiens
Method: (§2) We tested a subset of the 50 sulfonamide analogues for inhibition of proliferation of the MDA-MB-231, PC-3, MCF-7, and HCT-116 cancer cell lines. Following plating of the cells (24 hrs) in eight identical 96-well plates, the cells were treated with either Compound 1, 4, 15, or vehicle (DMSO) using a dose range of 1.6 to 5000 nM. After the lysis of cells, the cell lysate was resuspended in 25 μl PBS and the DNA was quantified using a PicoGreen assay by measuring fluorescence at Ex490 nm/Em535 nm. Cell proliferation was inhibited by Compounds 1, 4, and 15 for all the cancer cell lines tested with inhibition constants listed in Table 2.

HCT-116 [5] = experiment: inhibition of proliferation (PicoGreen DNA assay), HCT-116; type: cell-based; settings: Homo sapiens
Method: as §2

[6] = tested on: Endogenous Target Genes for Wnt & Apoptotic Pathways in LNCAP; experiment: qPCR of Wnt and pro-apoptotic target genes, LNCAP; type: cell-based; set-up: MYC expression, % change relative to DMSO control / CCDN1 expression, % change relative to DMSO control / BAX expression, % change relative to DMSO control / BAK expression, % change relative to DMSO control / BBC3 expression, % change relative to DMSO control / FOS expression, % change relative to DMSO control: concentration or dose not given beside the values; settings: 24 hrs, qPCR normalized to 36B4
MCF-7 = experiment: inhibition of proliferation (PicoGreen DNA assay), MCF-7; type: cell-based; settings: Homo sapiens, MCF7
Method: as §2

[7] = tested on: Endogenous Target Genes for Wnt & Apoptotic Pathways in PC-3; experiment: qPCR of Wnt and pro-apoptotic target genes, PC-3; type: cell-based; set-up: concentration or dose not given beside the values; settings: PC-3, 24 hrs, qPCR normalized to 36B4
Method: as §1

[8] = cytotoxicity (Vibrant Cytotox assay), HCT-116; type: cell-based; settings: human, HCT-116 cells; HCT-116, 24 hrs
Method: (§3) Given Compounds 1, 4, and 15 inhibited cancer cell proliferation and stimulated apoptosis, we tested the effects compounds 1, 4, and 15 on cancer cell viability and cytotoxicity. The MDA-MB-231, MCF-7, PC-3, and HCT-116 cells were treated with the indicated compounds for 24 hrs. over a dose range from 1.6 to 5000 nM. Viability and cytotoxicity were then measured by the Alamar Blue and Vibrant Cytotox assays respectively.

[9] = tested on: Wnt transcriptional activity; experiment: cell-based Wnt-luciferase reporter assay (SuperTOPFlash); settings: for Relative potency for Wnt inhibition: relative to IWR-1, transfected HEK293A cells treated 12 hours, normalized to Renilla
Text: “Hit” 1 (FIG. 1) was identified as a Wnt inhibitor in a high-throughput screen of a library of 74,000 compounds using a cell-based Wnt-luciferase reporter assay as a readout of Wnt transcriptional activity. […] Wnt transcriptional activity was monitored in HEK-293T cells using a luciferase-based Wnt reporter (SuperTOPFlash) stimulated by Wnt3a conditioned media.
Medicinal chemical refinement of “hit” 1 was undertaken to improve its potency, maintain non-toxicity, increase water solubility and improve bioavailability. The SAR refinement of functional activity of “hit” 1 on the inhibition of the Wnt pathway was determined using a cell-based Wnt-luciferase reporter assay (described above). with Renilla Luciferase was used as a normalization for transfection efficiency. 6-8 hours after transfection, transfected HEK293A cells were treated with 1 and each analog for 12 hours. Both firefly and renilla luciferase activities were measured using a plate reader. A library of compounds was tested to obtain an SAR for 1. Compound 1 and its analogs are synthesized by a two step synthesis, Scheme 1.
Signaling was tested using a standard luciferase response system for canonical Wnt/β-catenin/TCF signaling. Briefly, we used a cell line that had been transfected with a luciferase reporter gene under the control of the response element of a transcription factor that is activated by association with β-catenin and is the target of canonical Wnt signaling.

PC-3 [10] = experiment: viability (Alamar Blue), PC-3; type: cell-based; settings: Homo sapiens; PC-3, 24 hrs
Method: as §3

MDA-MB-231 [11] = experiment: inhibition of proliferation (PicoGreen DNA assay), MDA-MB-231; type: cell-based; settings: Homo sapiens
Method: as §2

MDA-MB-231 [12] = experiment: viability (Alamar Blue), MDA-MB-231; type: cell-based; settings: Homo sapiens; MDA-MB-231, 24 hrs
Method: as §3

[13] = tested on: HCT-116 and MCF-7 cancer cells; p53 −/− isogenic HCT-116 cells; experiment: morphology change of cancer cells with and without p53; type: cell-based; settings: for morphology change in cancer cells with wild-type and mutant p53: HCT-116 and MCF-7, 500 nM for 24 hours; for morphology change in cells lacking p53: −/− p53 isogenic HCT-116 cells, 500 nM for 24 hours
Text: Using the same treatment conditions, this morphology change was not observed in […] cells lacking p53 (i.e., −/− p53, isogenic HCT-116 cells) highlighting the integral importance of p53 protein in the mechanism of action of the disclosed compounds.

O=C1CCCN1c1ccc(S(=O)(=O)N2CCCc3ccccc32)cc1 [Compound 1, 1-(4-(3,4-dihydroquinolin-1(2H)-ylsulfonyl)phenyl)pyrrolidin-2-one]
BAK expression, % change relative to DMSO control [1]: +75%
BAX expression, % change relative to DMSO control [1]: +5%
BBC3 expression, % change relative to DMSO control [1]: −80%
CCDN1 expression, % change relative to DMSO control [1]: +40%
FOS expression, % change relative to DMSO control [1]: −70%
JUN expression, % change relative to DMSO control [1]: +525%
MYC expression, % change relative to DMSO control [1]: −45%
IC50 (HCT-116 [2]): 0.096 µM
IC50 at 24 h [3]: > 5 µM
IC50 (PC-3 [4]): 0.02 µM
IC50 (HCT-116 [5]): 0.04 µM
BAK expression, % change relative to DMSO control [6]: −22%
BAX expression, % change relative to DMSO control [6]: −30%
BBC3 expression, % change relative to DMSO control [6]: −90%
CCDN1 expression, % change relative to DMSO control [6]: −10%
FOS expression, % change relative to DMSO control [6]: −15%
MYC expression, % change relative to DMSO control [6]: −35%
IC50 (MCF-7): 0.02 µM
BAK expression, % change relative to DMSO control [7]: −20%
BAX expression, % change relative to DMSO control [7]: +5%
BBC3 expression, % change relative to DMSO control [7]: −38%
CCDN1 expression, % change relative to DMSO control [7]: +10%
FOS expression, % change relative to DMSO control [7]: +75%
JUN expression, % change relative to DMSO control [7]: +75%
MYC expression, % change relative to DMSO control [7]: +25%
IC50 at 24 h [8]: > 5 µM
EC50 ([9]; Homo sapiens, HEK-293T cells, SuperTOPFlash stimulated by Wnt3a conditioned media, read-out: inhibition of Wnt transcriptional activity, EC50): ~0.025 µM
Relative potency for Wnt inhibition [9]: +++ (between 40 to 60% potency compared to IWR-1)
IC50 (PC-3 [10]): 0.157 µM
IC50 (MDA-MB-231 [11]): 0.1 µM
IC50 (MDA-MB-231 [12]): 0.035 µM
morphology change in cancer cells with wild-type and mutant p53 [13]: morphology change from a flat adherent cell to a rounded non-adherent one
morphology change in cells lacking p53 [13]: not observed

CC1CCc2ccccc2N1S(=O)(=O)c1ccc(N2CCCC2=O)cc1 (stereo not shown) [Compound 4, 1-(4-(2-methyl-3,4-dihydroquinolin-1(2H)-ylsulfonyl)phenyl)pyrrolidin-2-one]
BAK expression, % change relative to DMSO control [1]: +110%
BBC3 expression, % change relative to DMSO control [1]: −90%
CCDN1 expression, % change relative to DMSO control [1]: −5%
FOS expression, % change relative to DMSO control [1]: −85%
JUN expression, % change relative to DMSO control [1]: +725%
MYC expression, % change relative to DMSO control [1]: −75%
IC50 (HCT-116 [2]): 0.143 µM
IC50 at 24 h [3]: > 5 µM
IC50 (PC-3 [4]): 0.1 µM
IC50 (HCT-116 [5]): 0.1 µM
BAK expression, % change relative to DMSO control [6]: −42%
BAX expression, % change relative to DMSO control [6]: −55%
BBC3 expression, % change relative to DMSO control [6]: −85%
CCDN1 expression, % change relative to DMSO control [6]: −30%
FOS expression, % change relative to DMSO control [6]: −38%
MYC expression, % change relative to DMSO control [6]: −40%
IC50 (MCF-7): 0.04 µM
BAK expression, % change relative to DMSO control [7]: −55%
BAX expression, % change relative to DMSO control [7]: −55%
BBC3 expression, % change relative to DMSO control [7]: −37%
CCDN1 expression, % change relative to DMSO control [7]: −42%
FOS expression, % change relative to DMSO control [7]: −25%
JUN expression, % change relative to DMSO control [7]: −25%
MYC expression, % change relative to DMSO control [7]: −75%
IC50 at 24 h [8]: > 5 µM
Relative potency for Wnt inhibition [9]: ++++ (between 60 to 80% potency compared to IWR-1)
IC50 (PC-3 [10]): 0.017 µM
IC50 (MDA-MB-231 [11]): 0.25 µM
IC50 (MDA-MB-231 [12]): 0.045 µM
morphology change in cancer cells with wild-type and mutant p53 [13]: morphology change from a flat adherent cell to a rounded non-adherent one
morphology change in cells lacking p53 [13]: not observed

CN1CCN(S(=O)(=O)c2ccc(N3CCCC3=O)cc2)c2ccccc21 [Compound 15, 1-(4-(4-methyl-3,4-dihydroquinoxalin-1(2H)-ylsulfonyl)phenyl)pyrrolidin-2-one]
BAK expression, % change relative to DMSO control [1]: +98%
BAX expression, % change relative to DMSO control [1]: −5%
BBC3 expression, % change relative to DMSO control [1]: −95%
CCDN1 expression, % change relative to DMSO control [1]: +25%
FOS expression, % change relative to DMSO control [1]: −84%
JUN expression, % change relative to DMSO control [1]: +775%
MYC expression, % change relative to DMSO control [1]: −70%
IC50 (HCT-116 [2]): 0.015 µM
IC50 at 24 h [3]: > 5 µM
IC50 (PC-3 [4]): 0.02 µM
IC50 (HCT-116 [5]): 0.015 µM
BAK expression, % change relative to DMSO control [6]: −45%
BAX expression, % change relative to DMSO control [6]: −58%
BBC3 expression, % change relative to DMSO control [6]: −55%
CCDN1 expression, % change relative to DMSO control [6]: −28%
FOS expression, % change relative to DMSO control [6]: −25%
JUN expression, % change relative to DMSO control [6]: +45%
MYC expression, % change relative to DMSO control [6]: −45%
IC50 (MCF-7): 0.02 µM
BAK expression, % change relative to DMSO control [7]: −58%
BAX expression, % change relative to DMSO control [7]: −54%
BBC3 expression, % change relative to DMSO control [7]: −45%
CCDN1 expression, % change relative to DMSO control [7]: −30%
FOS expression, % change relative to DMSO control [7]: −24%
JUN expression, % change relative to DMSO control [7]: −30%
MYC expression, % change relative to DMSO control [7]: −60%
IC50 at 24 h [8]: > 5 µM
inhibition of Wnt transcriptional activity, IC50 (class symbol) ([9]; tested simultaneously with p53 reporter): ++++ (between 60 to 80% potency compared to IWR-1)
IC50 (PC-3 [10]): 0.032 µM
IC50 (MDA-MB-231 [11]): 0.025 µM
IC50 (MDA-MB-231 [12]): 0.093 µM
morphology change in cancer cells with wild-type and mutant p53 [13]: morphology change from a flat adherent cell to a rounded non-adherent one
morphology change in cells lacking p53 [13]: not observed
